Laboratory results as given in the NIST ThermoML archive (doi:10.1016/j.fluid.2016.02.035).

Experiment: mn = molality of the nth substance listed, in mol/kg
Conditions: 101 kPa, Liquid; for speed of sound: Sing-around technique in a fixed-path interferometer; for mass density: Vibrating tube method

CCCC[N+](CCCC)(CCCC)CCCC.[Br-] [tetrabutylammonium bromide] + O
Conditions	mass density [kg/m3]	speed of sound [m/s]
293.15 K, m1 = 0.0015	998.245	1483.3
293.15 K, m1 = 0.0047	998.318	1484.1
293.15 K, m1 = 0.0061	998.352	1484.6
293.15 K, m1 = 0.013	998.509	1486.1
293.15 K, m1 = 0.0183	998.632	1487.7
293.15 K, m1 = 0.026	998.809	1489.5
293.15 K, m1 = 0.031	998.934	1490.9
293.15 K, m1 = 0.0492	999.359	1495.1
293.15 K, m1 = 0.0796	1000.08	1502.6
293.15 K, m1 = 0.0997	1000.55	1507.5
293.15 K, m1 = 0.1118	1000.85	1510.4
293.15 K, m1 = 0.1291	1001.26	1514.5
293.15 K, m1 = 0.1464	1001.68	1518.5
293.15 K, m1 = 0.1626	1002.06	1522.2
293.15 K, m1 = 0.1952	1002.85	1529.5
293.15 K, m1 = 0.2309	1003.71	1537.5
293.15 K, m1 = 0.2732	1004.73	1546.5
293.15 K, m1 = 0.3073	1005.55	1553.8
293.15 K, m1 = 0.3449	1006.43	1561.7
293.15 K, m1 = 0.5437	1011.1	1599.5
293.15 K, m1 = 0.7712	1016.12	1636
298.15 K, m1 = 0.0015	997.085	1497.3
298.15 K, m1 = 0.0047	997.156	1498.2
298.15 K, m1 = 0.0061	997.187	1498.6
298.15 K, m1 = 0.013	997.335	1500
298.15 K, m1 = 0.0183	997.458	1501.4
298.15 K, m1 = 0.026	997.626	1503.1
298.15 K, m1 = 0.031	997.744	1504.3
298.15 K, m1 = 0.0492	998.14	1508.4
298.15 K, m1 = 0.0796	998.844	1515.2
298.15 K, m1 = 0.0997	999.297	1519.7
298.15 K, m1 = 0.1118	999.574	1522.4
298.15 K, m1 = 0.1291	999.966	1526.2
298.15 K, m1 = 0.1464	1000.37	1529.9
298.15 K, m1 = 0.1626	1000.73	1533.3
298.15 K, m1 = 0.1952	1001.49	1540.1
298.15 K, m1 = 0.2309	1002.3	1547.3
298.15 K, m1 = 0.2732	1003.27	1555.7
298.15 K, m1 = 0.3073	1004.05	1562.3
298.15 K, m1 = 0.3449	1004.88	1569.5
298.15 K, m1 = 0.5437	1009.3	1603.7
298.15 K, m1 = 0.7712	1014.01	1636.3
303.15 K, m1 = 0.0015	995.686	1509.6
303.15 K, m1 = 0.0047	995.754	1510.3
303.15 K, m1 = 0.0061	995.785	1510.7
303.15 K, m1 = 0.013	995.926	1512.1
303.15 K, m1 = 0.0183	996.041	1513.3
303.15 K, m1 = 0.026	996.204	1514.9
303.15 K, m1 = 0.031	996.318	1516.1
303.15 K, m1 = 0.0492	996.704	1519.8
303.15 K, m1 = 0.0796	997.37	1526.2
303.15 K, m1 = 0.0997	997.802	1530.3
303.15 K, m1 = 0.1118	998.068	1532.8
303.15 K, m1 = 0.1291	998.443	1536.2
303.15 K, m1 = 0.1464	998.826	1539.7
303.15 K, m1 = 0.1626	999.177	1542.8
303.15 K, m1 = 0.1952	999.897	1548.9
303.15 K, m1 = 0.2309	1000.67	1555.6
303.15 K, m1 = 0.2732	1001.6	1563.3
303.15 K, m1 = 0.3073	1002.33	1569.3
303.15 K, m1 = 0.3449	1003.12	1575.8
303.15 K, m1 = 0.5437	1007.29	1606.7
303.15 K, m1 = 0.7712	1011.73	1635.7
308.15 K, m1 = 0.0015	994.069	1520.2
308.15 K, m1 = 0.0047	994.133	1520.9
308.15 K, m1 = 0.0061	994.141	1521.2
308.15 K, m1 = 0.013	994.299	1522.5
308.15 K, m1 = 0.0183	994.411	1523.7
308.15 K, m1 = 0.026	994.559	1525.1
308.15 K, m1 = 0.031	994.67	1526.1
308.15 K, m1 = 0.0492	995.05	1529.5
308.15 K, m1 = 0.0796	995.683	1535.4
308.15 K, m1 = 0.0997	996.092	1539.2
308.15 K, m1 = 0.1118	996.35	1541.5
308.15 K, m1 = 0.1291	996.709	1544.7
308.15 K, m1 = 0.1464	997.075	1547.8
308.15 K, m1 = 0.1626	997.408	1550.7
308.15 K, m1 = 0.1952	998.092	1556.3
308.15 K, m1 = 0.2309	998.837	1562.5
308.15 K, m1 = 0.2732	999.711	1569.5
308.15 K, m1 = 0.3073	1000.41	1574.9
308.15 K, m1 = 0.3449	1001.16	1580.8
308.15 K, m1 = 0.5437	1005.11	1608.6
308.15 K, m1 = 0.7712	1009.28	1634.4
313.15 K, m1 = 0.0015	992.252	1529.2
313.15 K, m1 = 0.0047	992.309	1529.9
313.15 K, m1 = 0.0061	992.322	1530.2
313.15 K, m1 = 0.013	992.471	1531.4
313.15 K, m1 = 0.0183	992.571	1532.4
313.15 K, m1 = 0.026	992.724	1533.8
313.15 K, m1 = 0.031	992.829	1534.7
313.15 K, m1 = 0.0492	993.186	1537.8
313.15 K, m1 = 0.0796	993.797	1543.2
313.15 K, m1 = 0.0997	994.191	1546.6
313.15 K, m1 = 0.1118	994.435	1548.8
313.15 K, m1 = 0.1291	994.777	1551.7
313.15 K, m1 = 0.1464	995.128	1554.6
313.15 K, m1 = 0.1626	995.446	1557.2
313.15 K, m1 = 0.1952	996.099	1562.3
313.15 K, m1 = 0.2309	996.807	1567.9
313.15 K, m1 = 0.2732	997.64	1574.3
313.15 K, m1 = 0.3073	998.309	1579.2
313.15 K, m1 = 0.3449	999.017	1584.5
313.15 K, m1 = 0.5437	1002.75	1609.5
313.15 K, m1 = 0.7712	1006.68	1632
318.15 K, m1 = 0.0015	990.25	1536.8
318.15 K, m1 = 0.0047	990.268	1537.4
318.15 K, m1 = 0.0061	990.285	1537.6
318.15 K, m1 = 0.013	990.457	1538.7
318.15 K, m1 = 0.0183	990.535	1539.7
318.15 K, m1 = 0.026	990.703	1540.9
318.15 K, m1 = 0.031	990.802	1541.8
318.15 K, m1 = 0.0492	991.142	1544.6
318.15 K, m1 = 0.0796	991.727	1549.6
318.15 K, m1 = 0.0997	992.105	1552.7
318.15 K, m1 = 0.1118	992.338	1554.6
318.15 K, m1 = 0.1291	992.665	1557.3
318.15 K, m1 = 0.1464	992.999	1559.9
318.15 K, m1 = 0.1626	993.303	1562.3
318.15 K, m1 = 0.1952	993.923	1567
318.15 K, m1 = 0.2309	994.602	1572
318.15 K, m1 = 0.2732	995.396	1577.8
318.15 K, m1 = 0.3073	996.027	1582.3
318.15 K, m1 = 0.3449	996.7	1587.1
318.15 K, m1 = 0.5437	1000.24	1609.2
318.15 K, m1 = 0.7712	1003.95	1629
